One series deals with GSK3β (Homo sapiens, UniProt P49841). Briefly: Inhibitory activity against GSK3β (33P-ATP phosphorylation of prephosphorylated GS1 peptide, two protocols). The series is classed as biochemical. Conditions: first or second protocol not specified. How it is done: Inhibitory Activity of the Medicament of the Present Invention Against GSK3β Two different protocols can be used. In a first protocol : 7.5 μM of prephosphorylated GS1 peptide and 10 μM ATP (containing 300,000 cpm of 33P-ATP) were incubated in 25 mM Tris-HCl, pH 7.5, 0.6 mM DTT, 6 mM MgCl2, 0.6 mM EGTA, 0.05 mg/ml BSA buffer for 1 hour at room temperature in the presence of GSK3β (total reaction volume : 100 microliters). In a second protocol : 4.1 μM of prephosphorylated GS1 peptide and 42 μM ATP (containing 260,000 cpm 33P-ATP) were incubated in 80 mM Mes-NaOH, pH 6.5, 1 mM Mg acetate, 0.5 mM EGTA, 5 mM 2-mercaptoethanol, 0.02% Tween 20, 10% glycerol buffer for 2 hours at room temperature in the presence of GSK3β. Inhibitors were solubilised in DMSO (final solvent concentration in the reaction medium, 1%). The reaction was stopped with 100 microliters of a solution made of 25 g polyphosphoric acid (85% P2O5), 126 ml 85% H3PO4, H2O to 500 ml and then diluted to 1:100 before use. An aliquot of the reaction mixture was then transferred to Whatman P81 cation exchange filters and rinsed with the solution described above. Incorporated 33P radioactivity was determined by liquid scintillation spectrometry. The phosphorylated GS-1 peptide had the following sequence: NH2-[…](P)EDEE-COOH. […]
GSK3β, sequence (P49841 whole entry, species assumed): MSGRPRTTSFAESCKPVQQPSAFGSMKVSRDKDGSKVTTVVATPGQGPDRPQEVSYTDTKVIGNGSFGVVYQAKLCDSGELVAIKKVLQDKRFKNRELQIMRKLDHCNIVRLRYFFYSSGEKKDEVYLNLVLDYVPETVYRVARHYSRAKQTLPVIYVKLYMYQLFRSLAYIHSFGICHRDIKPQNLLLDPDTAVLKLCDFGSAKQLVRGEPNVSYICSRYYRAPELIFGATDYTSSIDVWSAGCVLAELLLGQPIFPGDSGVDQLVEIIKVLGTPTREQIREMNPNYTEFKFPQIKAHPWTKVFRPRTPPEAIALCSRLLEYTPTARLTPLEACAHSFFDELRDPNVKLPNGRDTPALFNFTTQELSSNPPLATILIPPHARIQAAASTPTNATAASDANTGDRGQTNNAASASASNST

A word on the melting point: it is the temperature, or range, at which the solid turns liquid. The term IC50 denotes the midpoint of a concentration-inhibition curve. A low value points to greater potency in that assay. In turn, `O=c1cc(-c2ccncn2)nc2n(CCc3cccc4ccccc34)ccn12` [compound 6, 1-(2-Naphthalen-1-yl-ethyl)-7-(pyrimidin-4-yl)-1H-imidazo[1,2-a]pyrimidin-5-one] yielded a melting point of 215 to 217 °C. Also, half-maximal inhibition on GSK3β (IC50) required 21 nM. Molecule `O=c1cc(-c2ccncn2)nc2n(CC(O)c3ccccc3)ccn12` (stereo not shown) [compound 11, 1-(2-Hydroxy-2-phenyl-ethyl)-7-(pyrimidin-4-yl)-1H-imidazo[1,2-a]pyrimidin-5-one] had a melting point of 159 to 161 °C.

As to `O=C(Cn1ccn2c(=O)cc(-c3ccncn3)nc12)c1ccccc1` [compound 12, 1-(2-Oxo-2-phenyl-ethyl)-7-(pyrimidin-4-yl)-1H-imidazo[1,2-a]pyrimidin-5-one], the melting point fell in the range of 240 to 242 °C.

For the origin of these results see patent US7429663B2, “7-(Pyrimidin-4-yl)-Imidazo[1,2-a]Pyrimidin-5(1H)-ones as GSK3β inhibitors” (Sanofi-Aventis, priority 2002, dated 2008).
